Legend:
M-001 melanoma cells = assay: Melanoma tumor progression in Zebra fish larvae; type: in vivo, zebrafish; details: Axelopran 10000 nM, 72 hours of growth
[1] = tested on: blood vessels reaching MDA-MB-231 tumor on the CAM; assay: Chicken egg chorioallantoic membrane (CAM) tumor angiogenesis, blood vessel count; type: in vivo; details: 0.1, 0.5, 1.0 mg/kg; absence of exogenous opioids
Protocol: (§1) Two independent model systems were used to explore the role of MOR and endogenous opioids on angiogenesis. Human umbilical vein endothelial cells (HUVEC) in culture initiate angiogenesis through tube formation when cultured on an appropriate extracellular matrix. In a living system, the chicken egg chorioallantoic membrane assay (CAM) allows direct visualization of new blood vessel formation.
Furthermore, a chicken egg chorioallantoic membrane assay was conducted to determine blood vessel formation in the presence of increasing MOR antagonist (axelopran) concentrations (0, 0.1, 0.5, 1.0 mg/kg). Docetaxel was used as a control. For the testing CAM membranes were incubated in the presence of the MOR antagonist or docetaxel under the following conditions: Fertilized White Leghorn eggs were incubated at 37.5° C. with 50% relative humidity for 9 days. At that moment (E9), the CAM was dropped down by drilling a small hole through the eggshell into the air sac, and a 1 cm window was cut in the eggshell above the CAM. At least 20 eggs (depending on embryo surviving rate after 9 days of development, there could be more than 20 eggs per group) were grafted for each group. […] The number of blood vessels that reach the tumor and feed the tumor proliferation were counted in triplicate to evaluate tumor angiogenesis. […]

[2] = tested on: Human umbilical vein endothelial cells (HUVEC); assay: HUVEC cell tube formation; type: cell-based; details: 0-1000 nM, 18 hours, absence of exogenous opioids
Protocol: as §1
Specifically, the HUVEC cell tube formation was assessed in the presence of various doses (0-1000 nM) of three different Mu opioid receptor antagonists (axelopran, naloxegol, and methylnaltrexone (MNTX)). For this testing, the HUVEC cells were exposed to the various MOR antagonist concentrations and incubated under the following conditions: Briefly, 50 μL of Matrigel in 96 well plates was loaded to make one layer of extracellular matrix. The plate was kept for 1 hour at 37° C. HUVEC cells were seeded on top of Matrigel (0.02×10^6 cells/well) and waited for 4 h to form tube formation. […] Once tubes formed, cells were treated with increasing amounts of the test compounds (axelopran, naloxegol, and MNTX) and incubated for 18 hours. Cells were stained with Calcein AM and images were captured. The data analysis was performed using NIH imageJ software. Tube length was measure and data was plotted using prism software.

Zebra fish larvae [3] = assay: Zebra fish larvae toxicity screen; type: in vivo, zebrafish; details: doses up to 100 μM in incubation water
Protocol: Transgenic Tg(fli1: EGFP)y1 zebrafish embryos were used for these studies. The results of this testing are shown in FIG. 4A and FIG. 4B, which show Zebra fish larvae survival up to 72 hours in the presence of increasing axelopran concentration in the incubation water.
Based on the toxicity screening, for tumor progression analysis, doses up to 10 μM were utilized.
(§2) The toxicity screening period covered the first 72 hours of development. The efficacy evaluation of Axelopran was made using M-001 melanoma cells and matching TILs. Two-day old zebrafish embryos were subcutaneously injected into the perivitelline space with approximately 700 M-001 cells labelled with Dil red fluorescent dye and intravenously injected with TILs with or without pembrolizumab antibody. At the same time, MOR-antagonist test doses were added to the water. Following an additional 72 hours of further development, the fish were assayed for tumor growth (size of original tumor implant) and metastasis disseminated to the distal caudal venous plexus (CVP) three days after implantation.

[4] = tested on: Mouse pancreatic tumor cells (PAN02 cells); assay: Syngeneic mouse pancreatic cancer model; type: in vivo, mice (C57BL6)
Protocol: Mouse pancreatic tumor cells (PAN02 cells), maintained in RPMI 1640 media supplemented with 10% FBS and 2 mmol/L L-glutamine, were amplified in vitro prior to implantation. On the day of injection, cells were harvested, counted including a trypan blue viability dye (cut-off 80%), and resuspended in PBS at the appropriate concentration. The cells (5×10^6 in 200 μL PBS) were injected subcutaneously in the right flank of Female mice (C57BL6), 5 weeks of age (18-22 gm body weight) within 30 minutes after harvesting. After 9 days of tumor growth, mice were randomized into treatment groups at 10 animals/group. Treatments included vehicle (PBS), axelopran given as 1 mg/kg, p.o. daily, mouse anti-PD-1 given as 12.5 mg/kg i.p., 3x/week and axelopran plus mouse anti-PD-1. Animals were weighed thrice weekly and tumor growth measured using callipers as described previously for the colon cancer experiments.

[5] = tested on: MDA-MB-231 tumor cell line; assay: Breast cancer tumor progression in the CAM assay; type: in vivo, chicken
Protocol: The chicken egg chorioallantoic membrane assay (FIG. 3B) allows for the study of tumor progression of injected tumor cells in the presence of active endogenous immune surveillance, but again in the absence of an active gut microbiome.
Breast cancer cell tumor progression was assessed in the chicken egg, chorioallantoic membrane assay. The experimental timing is shown below in FIG. 9. Fertilized chicken eggs were incubated for 9 days. The MDA-MB-231 tumor cell line was cultivated in D-MEM medium supplemented with 10% FBS and 1% penicillin/streptomycin. On day E9, cells were detached with trypsin, washed with complete medium and suspended in graft medium. An inoculum of 1×10^6 cells was added onto the CAM of each egg (E9) and then eggs were randomized into groups. Tumor cells (breast cancer MDA-MB231 cells (10^6)) were then seeded on the upper CAM and further incubated for 3 three days. Test agents were then added to the same site at selected concentrations. Following five days of further incubation the growing tumor was excised, freed of CAM tissue, and weighed.
For this testing, the chicken eggs were treated with: axelopran; pembrolizumab (Pembro); axelopran+pembrolizumab; bevacizumab (Beva); axelopran+bevacizumab; pembrolizumab+bevacizumab; and axelopran+pembrolizumab+bevacizumab. Axelopran was used at dose of 1.0 mg/kg; pembrolizumab was used at a dose of 2.5 mg/kg; and bevacizumab was used at a dose of 4 mg/kg. The results of this testing are shown in FIG. 10A, 10B, 11 and Table 2-2.

Zebra fish larvae [6] = assay: Zebra fish larvae mortality in combination therapy study; type: in vivo, zebrafish
Protocol: as §2
For study investigating combination therapy, the Zebra fish larvae mortality was also investigated.

[7] = absence of exogenous opioids, breast cancer

Q: `NC(=O)c1cccc(C2CC3CCC(C2)N3CCN(CC2CCCCC2)C(=O)[C@@H](O)CO)c1` (stereo partly drawn) [axelopran, 3-[(1R,3r,5S)-8-(2-{(cyclohexylmethyl)[(2S)-2,3-dihydroxypropanoyl]amino}ethyl)-8-azabicyclo[3.2.1]octan-3-yl]benzamide] was tested. Which “Melanoma tumor progression index (tumor size × metastasis), Mean” value (M-001 melanoma cells) did it give?
A: The value was 2.41.

Q: What about the “angiogenesis (blood vessel formation, CAM)” value [1] of the same molecule?
A: Its value is “inhibit angiogenesis”.

Q: What about the “angiogenesis (HUVEC cell tube formation)” value [2] of the same molecule?
A: The value was “inhibit angiogenesis”.

Q: And the abnormal pathology (Zebra fish larvae [3])?
A: Its abnormal pathology is “limited abnormal pathology”.

Q: What about the larvae death (Zebra fish larvae [3]) of the same molecule?
A: The larvae death was “did not result in larvae death”.

Q: What about the “survival and development of pathological lesions” value (Zebra fish larvae [3]; up to 72 hours) of the same molecule?
A: Its value is “no different that the vehicle control”.

Q: And the “distribution of tumor volumes” value ([4]; compared to animals not treated with axelopran)?
A: The value was “lower and more uniform”.

Q: What about the “inhibition of tumor progression” value ([4]; day 23, axelopran 1 mg/kg p.o. daily, mouse anti-PD-1 12.5 mg/kg i.p. 3x/week) of the same molecule?
A: The value was “most prominent”.

Q: And the “Breast cancer tumor progression index (tumor size × metastasis), Mean” value ([5]; 5 days of growth in the upper CAM, axelopran 1.0 mg/kg, pembrolizumab 2.5 mg/kg, bevacizumab 4 mg/kg)?
A: The value was 0.63 fraction of negative control.

Q: And the “interaction of axelopran activity with anti-PD-1 treatment” value ([5]; absence of a microbiome, breast cancer)?
A: Its value is “additive”.

Q: What about the metastasis [5, 7] of the same molecule?
A: Its metastasis is “inhibits metastasis”.

Q: And the tumor growth [5, 7]?
A: Its tumor growth is “inhibits tumor growth”.

Q: What about the “Zebra fish larvae mortality” value (Zebra fish larvae [6]; axelopran added with TILS and TILS plus pembrolizumab) of the same molecule?
A: The value was “significantly reduced this mortality”.

Q: And the “Zebra fish larvae mortality” value (Zebra fish larvae [6]; axelopran alone, 72-hour period after exposure at 48 hours post-fertilization)?
A: Its value is “no significant mortality”.

— patent US20250186423A1, “METHODS OF TREATING CANCER AND OTHER CONDITIONS WITH A MU OPIOID RECEPTOR ANTAGONIST” (priority 2022, published 2025)
